ChEMBL document CHEMBL1139308, “Identification and synthesis of 2,7-diamino-thiazolo[5,4-d]pyrimidine derivatives as TRPV1 antagonists” (Bioorg Med Chem Lett, 2009)
≈ marks a conversion by molar mass, not a printed value.

Columns and labels:
[1] = target: Transient receptor potential cation channel subfamily V member 1 (Homo sapiens, UniProt Q8NER1); experiment: Antagonist activity at human TRPV1 expressed in HEK293 cells assessed as inhibition of capsaicin-induced calcium flux; assay type: functional, cell-based
[2] = target: Transient receptor potential cation channel subfamily V member 1 (Rattus norvegicus, UniProt O35433); experiment: Antagonist activity at rat TRPV1 expressed in HEK293 cells assessed as inhibition of capsaicin-induced calcium flux; assay type: functional, cell-based
[3] = Clearance in fasted Sprague-Dawley rat at 0.5 mg/kg, iv and 2 mg/kg, po; assay type: ADME, organism-based; conditions: in vivo
[4] = Half life in fasted Sprague-Dawley rat at 0.5 mg/kg, iv and 2 mg/kg, po; assay type: ADME, organism-based; conditions: in vivo
[5] = Volume of distribution at steady state in fasted Sprague-Dawley rat at 0.5 mg/kg, iv and 2 mg/kg, po; assay type: ADME, organism-based; conditions: in vivo, read-out: Vdss
[6] = Cmax in fasted Sprague-Dawley rat at 2 mg/kg, po; assay type: ADME, organism-based; set-up: dose 2 mg/kg, route oral; conditions: in vivo
Rattus norvegicus = experiment: AUC (infinity) in fasted Sprague-Dawley rat at 2 mg/kg, po; assay type: ADME, organism-based, Plasma; set-up: time infinity, dose 2 mg/kg, route oral; conditions: in vivo
[7] = Tmax in fasted Sprague-Dawley rat at 2 mg/kg, po; assay type: ADME, organism-based; set-up: dose 2 mg/kg, route oral; conditions: in vivo
[8] = Aqueous solubility in fasted-state simulated intestinal fluid at pH 6.8 after 3 days by HPLC; assay type: physicochemical
[9] = Bioavailability in fasted Sprague-Dawley rat at 0.5 mg/kg, iv and 2 mg/kg, po; assay type: ADME, organism-based; conditions: in vivo
[10] = Aqueous solubility in simulated gastric fluid at pH 1.2 after 3 days by HPLC; assay type: physicochemical

Transient receptor potential cation channel subfamily V member 1 (Rattus norvegicus, UniProt O35433), sequence (O35433 whole entry): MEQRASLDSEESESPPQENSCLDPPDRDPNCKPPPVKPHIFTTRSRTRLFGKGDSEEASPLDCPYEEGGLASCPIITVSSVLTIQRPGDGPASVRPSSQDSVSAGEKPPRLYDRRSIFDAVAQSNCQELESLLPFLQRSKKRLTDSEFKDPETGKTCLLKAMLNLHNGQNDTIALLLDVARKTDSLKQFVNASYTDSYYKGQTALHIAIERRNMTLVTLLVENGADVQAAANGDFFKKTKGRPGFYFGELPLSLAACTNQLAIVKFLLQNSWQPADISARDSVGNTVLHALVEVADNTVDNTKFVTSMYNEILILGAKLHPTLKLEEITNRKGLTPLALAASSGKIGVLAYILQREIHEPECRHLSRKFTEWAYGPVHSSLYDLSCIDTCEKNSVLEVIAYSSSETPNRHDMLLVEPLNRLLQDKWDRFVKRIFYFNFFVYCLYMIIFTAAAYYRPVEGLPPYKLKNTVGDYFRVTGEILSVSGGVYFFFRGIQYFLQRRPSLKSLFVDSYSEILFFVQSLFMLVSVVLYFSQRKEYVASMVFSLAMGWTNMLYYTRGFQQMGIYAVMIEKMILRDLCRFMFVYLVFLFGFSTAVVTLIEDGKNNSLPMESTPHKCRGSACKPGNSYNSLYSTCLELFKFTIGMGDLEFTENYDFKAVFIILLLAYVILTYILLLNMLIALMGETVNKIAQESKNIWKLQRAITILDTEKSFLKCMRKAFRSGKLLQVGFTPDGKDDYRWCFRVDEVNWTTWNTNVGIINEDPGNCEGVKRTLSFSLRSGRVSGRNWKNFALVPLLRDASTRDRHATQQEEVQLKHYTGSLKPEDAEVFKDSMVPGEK
Transient receptor potential cation channel subfamily V member 1 (Homo sapiens, UniProt Q8NER1), sequence (Q8NER1 whole entry): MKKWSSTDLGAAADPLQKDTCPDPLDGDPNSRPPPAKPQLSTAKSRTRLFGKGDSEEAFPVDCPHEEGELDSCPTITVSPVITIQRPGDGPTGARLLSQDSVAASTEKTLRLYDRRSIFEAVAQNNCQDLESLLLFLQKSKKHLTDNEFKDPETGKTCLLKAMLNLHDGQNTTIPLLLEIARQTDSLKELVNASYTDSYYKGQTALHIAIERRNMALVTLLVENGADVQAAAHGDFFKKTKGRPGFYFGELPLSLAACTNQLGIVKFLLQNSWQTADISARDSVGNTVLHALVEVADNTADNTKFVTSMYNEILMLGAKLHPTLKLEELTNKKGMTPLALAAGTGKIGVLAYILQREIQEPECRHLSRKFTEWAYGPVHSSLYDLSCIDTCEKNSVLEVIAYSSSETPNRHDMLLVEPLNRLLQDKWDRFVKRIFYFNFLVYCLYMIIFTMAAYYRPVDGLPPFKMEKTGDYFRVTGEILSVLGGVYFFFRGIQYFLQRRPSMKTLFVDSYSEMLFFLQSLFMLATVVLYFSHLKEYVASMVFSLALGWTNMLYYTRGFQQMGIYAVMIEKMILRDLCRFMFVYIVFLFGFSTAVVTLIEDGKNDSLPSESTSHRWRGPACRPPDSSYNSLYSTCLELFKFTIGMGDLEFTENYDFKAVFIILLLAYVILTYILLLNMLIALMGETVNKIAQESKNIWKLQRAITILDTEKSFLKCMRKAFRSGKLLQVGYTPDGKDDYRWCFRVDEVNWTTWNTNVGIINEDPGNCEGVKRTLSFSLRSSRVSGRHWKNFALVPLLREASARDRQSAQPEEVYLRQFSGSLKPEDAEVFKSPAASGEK

N#Cc1cc(Cl)c(Nc2nc3c(Nc4ccc(C(F)(F)F)cc4)ncnc3s2)c(Cl)c1
IC50 [1]: 95 nM
IC50 [2]: 53 nM

FC(F)(F)c1ccc(Nc2ncnc3sc(Nc4ncccc4C(F)(F)F)nc23)cc1
IC50 [1]: > 5000 nM
IC50 [2]: > 5000 nM

FC(F)(F)c1ccc(Nc2cccc3sc(Nc4c(Cl)cccc4Cl)nc23)cc1
IC50 [1]: > 5000 nM
IC50 [2]: > 5000 nM

CC(C)(C(=O)O)c1ccc(Nc2ncnc3sc(Nc4c(Cl)cccc4Cl)nc23)cc1
IC50 [1]: 31 nM

CC(C)(C)c1ccc(Oc2ncnc3sc(Nc4c(Cl)cccc4Cl)nc23)cc1
IC50 [1]: > 5000 nM
IC50 [2]: > 5000 nM

NCc1cc(Cl)c(Nc2nc3c(Nc4ccc(C(F)(F)F)cc4)ncnc3s2)c(Cl)c1
IC50 [1]: 125 nM
IC50 [2]: 54 nM

FC(F)(F)c1ccc(Nc2ncnc3sc(Nc4ccccc4Cl)nc23)cc1
IC50 [1]: 64 nM
IC50 [2]: 32 nM

CC(C)N1CCN(c2nc(Nc3ccc(C(F)(F)F)cc3)c3nc(Nc4c(Cl)cccc4Cl)sc3n2)CC1
IC50 [2]: 119 nM

Cc1ccc(Nc2ncnc3sc(Nc4c(Cl)cccc4Cl)nc23)cc1
IC50 [1]: 33 nM
IC50 [2]: 32 nM

Cc1nc(Nc2ccc(C(F)(F)F)cc2)c2nc(Nc3c(Cl)cccc3Cl)sc2n1
IC50 [2]: 2 nM

CC(C)Nc1nc(Nc2ccc(C(F)(F)F)cc2)c2nc(Nc3c(Cl)cccc3Cl)sc2n1
IC50 [1]: 13 nM
IC50 [2]: 9 nM

CS(=O)(=O)c1nc(Nc2ccc(C(F)(F)F)cc2)c2nc(Nc3c(Cl)cccc3Cl)sc2n1
IC50 [1]: 274 nM
IC50 [2]: 77 nM

Cc1cccc(Cl)c1Nc1nc2c(Nc3ccc(C(F)(F)F)cc3)ncnc2s1
IC50 [1]: 9 nM
IC50 [2]: 1.6 nM

Cc1ccccc1Nc1nc2c(Nc3ccc(C(F)(F)F)cc3)ncnc2s1
IC50 [1]: 51 nM
IC50 [2]: 14 nM

CSc1ccccc1Nc1nc2c(Nc3ccc(C(F)(F)F)cc3)ncnc2s1
IC50 [1]: 43 nM
IC50 [2]: 26 nM

FC(F)(F)c1ccc(Nc2nc3c(Nc4ccc(C(F)(F)F)cc4)ncnc3s2)cc1
IC50 [1]: > 5000 nM

FC(F)(F)c1ccc(Nc2ncnc3sc(Nc4cccc(C(F)(F)F)c4)nc23)cc1
IC50 [1]: > 5000 nM
IC50 [2]: > 5000 nM

O=S(=O)(c1ccc(Nc2ncnc3sc(Nc4c(Cl)cccc4Cl)nc23)cc1)N1CCCC1
IC50 [2]: 0.5 nM

FC(F)(F)c1ccc(Nc2ncnc3sc(Nc4ccccc4C(F)(F)F)nc23)cc1
IC50 [1]: 74 nM
IC50 [2]: 37 nM

CS(=O)(=O)c1ccccc1Nc1nc2c(Nc3ccc(C(F)(F)F)cc3)ncnc2s1
IC50 [1]: 234 nM
IC50 [2]: 221 nM

CS(=O)(=O)c1ccc(Nc2ncnc3sc(Nc4c(Cl)cccc4Cl)nc23)cc1
clearance [3]: 60 mL/min/kg
IC50 [1]: 5 nM
half-life [4]: 1.2 h
IC50 [2]: 3 nM
Vd [5]: 2.2 L/kg

FC(F)(F)c1ccc(Nc2nc(N3CCC3)nc3sc(Nc4c(Cl)cccc4Cl)nc23)cc1
IC50 [1]: 59 nM
IC50 [2]: 25 nM

FC(F)(F)c1ccc(Nc2nc(N3CCNCC3)nc3sc(Nc4c(Cl)cccc4Cl)nc23)cc1
IC50 [1]: > 5000 nM
IC50 [2]: > 5000 nM

CN(C)c1nc(Nc2ccc(C(F)(F)F)cc2)c2nc(Nc3c(Cl)cccc3Cl)sc2n1
IC50 [1]: 59 nM
IC50 [2]: 43 nM

FC(F)(F)c1ccc(Nc2ncnc3sc(Nc4c(Cl)cccc4Cl)nc23)cc1Cl
IC50 [1]: 21 nM
IC50 [2]: 9 nM

CC(C)(C)c1ccc(Nc2ncnc3sc(Nc4c(Cl)cccc4Cl)nc23)cc1
IC50 [1]: 11 nM

CSc1ccc(Nc2ncnc3sc(Nc4c(Cl)cccc4Cl)nc23)cc1
IC50 [1]: 96 nM
IC50 [2]: 12 nM

CN(c1nc2c(Nc3ccc(C(F)(F)F)cc3)ncnc2s1)c1c(Cl)cccc1Cl
IC50 [1]: 502 nM
IC50 [2]: 540 nM

NS(=O)(=O)c1ccc(Nc2ncnc3sc(Nc4c(Cl)cccc4Cl)nc23)cc1
IC50 [1]: > 5000 nM
IC50 [2]: 590 nM

FC(F)(F)c1ccc(Nc2nc(N3CCOCC3)nc3sc(Nc4c(Cl)cccc4Cl)nc23)cc1
IC50 [1]: 30 nM
IC50 [2]: 16 nM

FC(F)(F)c1ccc(Nc2ncnc3sc(Nc4ccccc4)nc23)cc1
IC50 [1]: > 5000 nM

CN(c1ccc(C(F)(F)F)cc1)c1ncnc2sc(Nc3c(Cl)cccc3Cl)nc12
IC50 [1]: > 5000 nM
IC50 [2]: > 1000 nM

CC(C)c1ccc(Nc2ncnc3sc(Nc4c(Cl)cccc4Cl)nc23)cc1
IC50 [1]: 10 nM
IC50 [2]: 3 nM

FC(F)(F)c1ccc(Nc2nc(NCC3CC3)nc3sc(Nc4c(Cl)cccc4Cl)nc23)cc1
IC50 [1]: 3 nM
IC50 [2]: 3 nM

FC(F)(F)c1ccc(Nc2nc(NCCN3CCOCC3)nc3sc(Nc4c(Cl)cccc4Cl)nc23)cc1
Cmax [6]: 70 nM
AUC (Rattus norvegicus): 196 ng·h/mL
clearance [3]: 30 mL/min/kg
Tmax [7]: 2 h
solubility at 72 h [8]: 10 µg/mL (≈ 17.1 µM)
IC50 [1]: 39 nM
half-life [4]: 1.8 h
bioavailability [9]: 17%
IC50 [2]: 11 nM
Vd [5]: 2.8 L/kg
solubility at 72 h [10]: 116 µg/mL (≈ 198 µM)

FC(F)(F)c1ccccc1Nc1ncnc2sc(Nc3c(Cl)cccc3Cl)nc12
IC50 [1]: > 5000 nM
IC50 [2]: > 5000 nM

Cc1cccc(C)c1Nc1nc2c(Nc3ccc(C(F)(F)F)cc3)ncnc2s1
IC50 [1]: 23 nM

FC(F)(F)c1ccc(Nc2nc(N3CCCC3)nc3sc(Nc4c(Cl)cccc4Cl)nc23)cc1
IC50 [1]: 12 nM
IC50 [2]: 36 nM

O=C(c1ccc(Nc2ncnc3sc(Nc4c(Cl)cccc4Cl)nc23)cc1)N1CCCC1
IC50 [1]: > 5000 nM
IC50 [2]: > 5000 nM

FC(F)(F)c1ccc(Sc2ncnc3sc(Nc4c(Cl)cccc4Cl)nc23)cc1
IC50 [1]: > 5000 nM
IC50 [2]: > 5000 nM

Clc1cccc(Cl)c1Nc1nc2c(Nc3ccccc3)ncnc2s1
IC50 [1]: 176 nM
IC50 [2]: 170 nM

NC(=O)c1cc(Cl)c(Nc2nc3c(Nc4ccc(C(F)(F)F)cc4)ncnc3s2)c(Cl)c1
IC50 [1]: 69 nM
IC50 [2]: 57 nM

OCc1cc(Cl)c(Nc2nc3c(Nc4ccc(C(F)(F)F)cc4)ncnc3s2)c(Cl)c1
Cmax [6]: 200 nM
AUC (Rattus norvegicus): 638 ng·h/mL
clearance [3]: 23.3 mL/min/kg
Tmax [7]: 4 h
half-life [4]: 1.8 h
bioavailability [9]: 45%
IC50 [2]: 0.5 nM
Vd [5]: 2.9 L/kg

O=C(O)c1cc(Cl)c(Nc2nc3c(Nc4ccc(C(F)(F)F)cc4)ncnc3s2)c(Cl)c1
IC50 [1]: > 5000 nM
IC50 [2]: > 5000 nM

CCN(CC)c1nc(Nc2ccc(C(F)(F)F)cc2)c2nc(Nc3c(Cl)cccc3Cl)sc2n1
IC50 [1]: 48 nM
IC50 [2]: 34 nM

FC(F)(F)c1cccc(Nc2ncnc3sc(Nc4c(Cl)cccc4Cl)nc23)c1
IC50 [1]: 206 nM
IC50 [2]: 192 nM

FC(F)(F)c1ccc(Nc2ncnc3c2CCN(c2ncccc2C(F)(F)F)C3)cc1
IC50 [1]: 15 nM
IC50 [2]: 71 nM

NC(=O)c1ccc(Nc2ncnc3sc(Nc4c(Cl)cccc4Cl)nc23)cc1
IC50 [1]: > 5000 nM
IC50 [2]: > 5000 nM

FC(F)(F)c1ccc(Nc2ncnc3nc(Nc4c(Cl)cccc4Cl)sc23)cc1
IC50 [1]: 680 nM
IC50 [2]: 864 nM

CSc1nc(Nc2ccc(C(F)(F)F)cc2)c2nc(Nc3c(Cl)cccc3Cl)sc2n1
IC50 [1]: 224 nM
IC50 [2]: 113 nM

FC(F)(F)c1ccc(Nc2nc(-c3ccccc3)nc3sc(Nc4c(Cl)cccc4Cl)nc23)cc1
IC50 [1]: 539 nM
IC50 [2]: 104 nM

O=C(O)c1ccc(Nc2ncnc3sc(Nc4c(Cl)cccc4Cl)nc23)cc1
IC50 [1]: > 5000 nM
IC50 [2]: > 5000 nM
